Where a name gives a salt, the structure may show the parent alone.
Target: T1, α7-subtype of nicotinic receptors (Rattus norvegicus, UniProt Q05941)
T1 construct: Cerebral cortices from male Wistar rats (150-250 g) are homogenised; from tissue; host or cells: rat cerebral cortex membrane homogenate (male Wistar rats)
Assay: In vitro inhibition of 3H-α-bungarotoxine binding in rat brain
Settings: rat cerebral cortex homogenate; 3H-α-bungarotoxine 2 nM; 2 hours at 37° C

T1 sequence (Q05941 23-502): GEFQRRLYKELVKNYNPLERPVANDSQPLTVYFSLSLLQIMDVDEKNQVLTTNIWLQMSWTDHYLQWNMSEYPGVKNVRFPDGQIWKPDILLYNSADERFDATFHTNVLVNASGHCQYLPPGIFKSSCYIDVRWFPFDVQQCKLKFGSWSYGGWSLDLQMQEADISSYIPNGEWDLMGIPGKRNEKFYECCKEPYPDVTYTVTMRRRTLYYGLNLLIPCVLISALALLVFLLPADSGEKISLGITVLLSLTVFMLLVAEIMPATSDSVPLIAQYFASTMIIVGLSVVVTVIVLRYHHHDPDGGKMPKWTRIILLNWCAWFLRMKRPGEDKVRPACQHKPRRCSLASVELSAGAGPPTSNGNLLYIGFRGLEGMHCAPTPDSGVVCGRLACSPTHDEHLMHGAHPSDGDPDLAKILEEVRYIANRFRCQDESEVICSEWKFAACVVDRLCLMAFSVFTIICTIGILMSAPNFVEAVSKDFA

## CN1C[C@@H]2C[C@H]1CN2c1ccc(C#Cc2ccccc2)nn1 [Compound 2, 2-Methyl-5-(6-phenylethynyl-pyridazin-3-yl)-(1S,4S)-2,5-diaza-bicyclo[2.2.1]heptane fumaric acid salt]
  IC50: 2 µM

— patent publication US7750011B2, “Diazabicyclic aryl derivatives and their medical use” (Neurosearch A/S, priority 2005, dated 2010)
